Where two headings read alike, the source gives them in different places.
Legend:
[1] = target: T1, 5-HT4 receptor (rat oesophageal tunica muscularis mucosae) (Rattus norvegicus, UniProt Q62758); test: 5-HT4 agonist activity: relaxation of carbachol-contracted rat oesophageal tunica muscularis mucosae; assay type: cell-based
T1 construct: oesophageal tunica muscularis mucosae excised from rats; from tissue; host or cells: rat oesophageal tunica muscularis mucosae
Procedure: The agonist activities of the indazole derivatives of the present invention and Mosapride were determined by the following method, that is, the method determining 5-HT4 agonist activity by using rat oesophageal tunica muscularis mucosae (Naunyn-Schmiedeberg's Arch. Pharmacol., Vol. 343, 439-446, 1991).
According to the method of the literature, the oesophageal tunica muscularis mucosae excised from rats were suspended in an organ bath containing Krebs-Henseleit solution aerated with a mixed gas (95% O2, 5% CO2) and contracted with carbachol (1×10^-6 M). After the contraction was stabilized, the cumulative administration of the compounds was performed to determine the relaxation of the rat oesophagus pre-contracted with carbachol. The concentration (ED50) to cause 50% relaxation of the carbachol-induced contraction was measured. The result is expressed in terms of -log ED50 and shown in the following table in which higher numerical value indicates higher activity.

[2] = system: 5-HT4 receptor; conditions: WO 9303725; cited from earlier work
[3] = U.S. Pat. No. 3,145,215; cited from earlier work
[4] = concentration causing 50% relaxation of the carbachol (1×10^-6 M)-induced contraction, cumulative administration, read-out: Activity (-log ED50) (converted)

T1 sequence (Q62758 whole entry): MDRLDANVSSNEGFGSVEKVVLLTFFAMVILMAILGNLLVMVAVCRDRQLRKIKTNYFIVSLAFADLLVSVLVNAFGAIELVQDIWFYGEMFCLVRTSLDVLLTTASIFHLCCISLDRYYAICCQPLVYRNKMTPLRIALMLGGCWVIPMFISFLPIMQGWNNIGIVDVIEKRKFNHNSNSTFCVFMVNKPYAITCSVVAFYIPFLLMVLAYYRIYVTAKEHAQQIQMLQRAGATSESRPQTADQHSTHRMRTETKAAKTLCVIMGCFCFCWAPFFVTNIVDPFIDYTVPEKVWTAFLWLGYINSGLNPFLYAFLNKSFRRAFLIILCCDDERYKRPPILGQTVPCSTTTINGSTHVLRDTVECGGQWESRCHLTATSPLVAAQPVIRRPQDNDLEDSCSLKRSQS

SMILES | EC50 [1] | also measured
CCCn1nc(C(=O)NCC=C2CCN(Cc3ccc(F)cc3)CC2)c2ccccc21 [Compound 12, N-[2-(1-p-Fluorobenzyl-4-piperidylidene)ethyl]-1-n-propylindazole-3-carboxamide] | 3.39 µM | –
CCCn1nc(C(=O)NCC=C2CCN(C)CC2)c2ccccc21 [Compound 4, N-[2-(1-Methyl-4-piperidylidene)ethyl]-1-n-propylindazole-3-carboxamide] | 9.77 µM | –
CCCCN1CCN(CCNC(=S)c2nn(CCC)c3ccccc23)CC1 [Compound 32, N-[2-(4-n-Butyl-1-piperazinyl)ethyl]-1-n-propylindazole-3-thiocarboxamide] | – | EC50 [1, 4]: 10.5 µM
C=CCn1nc(C(=O)NCCN2CCN(Cc3ccc(F)cc3)CC2)c2ccccc21 [Compound 16, N-[2-(4-p-Fluorobenzyl-1-piperazinyl)ethyl]-1-allylindazole-3-carboxamide] | 7.41 µM | –
CCCCN1CCN(CCNC(=O)c2nn(C3CCCC3)c3ccccc23)CC1 [Compound 31, N-[2-(4-n-Butyl-1-piperazinyl)ethyl]-1-cyclopentylindazole-3-carboxamide] | 5.01 µM | –
CCCCN1CCN(CCCNC(=O)c2nn(CCC)c3ccccc23)CC1 [Compound 1, N-[3-(4-n-Butyl-1-piperazinyl)propyl]-1-n-propylindazole-3-carboxamide] | 10.5 µM | –
CCCCN1CCC(NC(=O)c2nn(CCC)c3ccccc23)CC1 [Compound 23, N-(1-n-Butyl-4-piperidyl)-1-n-propylindazole-3-carboxamide] | 2.82 µM | –
CCCn1nc(C(=O)NCCC2CCN(C)CC2)c2ccccc21 [Compound 8, N-[2-(1-Methyl-4-piperidyl)ethyl]-1-n-propylindazole-3-carboxamide] | 10.7 µM | –
CCCCN1CCC(COC(=O)c2nn(C)c3ccccc23)CC1 [(1-butyl-4-piperidyl)methyl-1-methylindazole-3-carboxylate] | – | 5-HT4 receptor antagonist activity (in words) [2]: has a 5-HT4 receptor antagonist activity
CCCn1nc(C(=O)NC2CCN(Cc3ccccc3)CC2)c2ccccc21 [Compound 17, N-(1-Benzyl-4-piperidyl)-1-n-propylindazole-3-carboxamide] | 3.39 µM | –
CCCCN1CCCC(NC(=O)c2nn(CCC)c3ccccc23)CCC1 [Compound 6, N-(1-n-Butyl-5-octahydroazocinyl)-1-n-propylindazole-3-carboxamide] | 6.46 µM | –
CCCCN1CCN(CCNC(=O)c2nn(C(C)CC)c3ccccc23)CC1 (stereo not drawn) [Compound 13, N-[2-(4-n-Butyl-1-piperazinyl)ethyl]-1-sec-butylindazole-3-carboxamide] | 5.5 µM | –
O=C(NCCN1CCN(Cc2ccc(F)cc2)CC1)c1n[nH]c2ccccc12 [Compound 11, N-[2-(4-p-Fluorobenzyl-1-piperazinyl)ethyl]-1H-indazole-3-carboxamide] | – | EC50 [1, 4]: 12.6 µM
C=CCN1CCN(CCNC(=O)c2nn(CCC)c3ccccc23)CC1 [Compound 25, N-[2-(4-Allyl-1-piperazinyl)ethyl]-1-n-propylindazole-3-carboxamide] | 6.03 µM | –
CCCCCN1CCN(CCNC(=O)c2nn(CCC)c3ccccc23)CC1 [Compound 27, N-[2-(4-n-Pentyl-1-piperazinyl)ethyl]-1-n-propylindazole-3-carboxamide] | 2.69 µM | –
CCCn1nc(C(=O)NCCN2CCN(C)CC2)c2ccccc21 [Compound 2, N-[2-(4-Methyl-1-piperazinyl)ethyl]-1-n-propylindazole-3-carboxamide] | 20.4 µM | –
CCCn1nc(C(=O)NC2CCNCC2)c2ccccc21 [Compound 20, N-(4-Piperidyl)-1-n-propylindazole-3-carboxamide] | 112 µM | –

SMILES | EC50 [1] | also measured
CCCn1nc(C(=O)NCC2CCN(C)CC2)c2ccccc21 [Compound 7, N-(1-Methyl-4-piperidyl)methyl-1-n-propylindazole-3-carboxamide] | 5.01 µM | –
CCCN1CCN(CCNC(=O)c2nn(CCC)c3ccccc23)CC1 [Compound 26, N-[2-(4-n-Propyl-1-piperazinyl)ethyl]-1-n-propylindazole-3-carboxamide] | 8.91 µM | –
CCCCN1CCC(CCNC(=O)c2nn(CCC)c3ccccc23)CC1 [Compound 19, N-[2-(1-n-Butyl-4-piperidyl)ethyl]-1-n-propylindazole-3-carboxamide] | 1.29 µM | –
CCCCN1CCN(CCNC(=O)c2nn(CC)c3ccccc23)CC1 [Compound 29, N-[2-(4-n-Butyl-1-piperazinyl)ethyl]-1-ethylindazole-3-carboxamide] | 10.2 µM | –
CCCCN1CCN(CCNCc2nn(CCC)c3ccccc23)CC1 [Compound 33, 3-{N-[2-(4-n-Butyl-1-piperazinyl)ethyl]aminomethyl}-1-n-propylindazole] | – | EC50 [1, 4]: 29.5 µM
CCCCN1CCN(CCNC(=O)c2nn(CCC)c3ccccc23)CC1 [Compound 3, N-[2-(4-n-Butyl-1-piperazinyl)ethyl]-1-n-propylindazole-3-carboxamide] | 2.4 µM | –
CCCn1nc(C(=O)NC2CCN(C)CC2)c2ccccc21 [Compound 22, N-(1-Methyl-4-piperidyl)-1-n-propylindazole-3-carboxamide] | 6.92 µM | –
CCCn1nc(C(=O)NCC2CCNCC2)c2ccccc21 [Compound 21, N-(4-Piperidyl)methyl-1-n-propylindazole-3-carboxamide] | 47.9 µM | –
O=C(NCC=C1CCN(Cc2ccc(F)cc2)CC1)c1n[nH]c2ccccc12 [Compound 9, N-[2-(1-p-Fluorobenzyl-4-piperidylidene)ethyl]-1H-indazole-3-carboxamide] | – | EC50 [1, 4]: 7.41 µM
CCCCN1CCC(=CCNC(=O)c2nn(CCC)c3ccccc23)CC1 [Compound 5, N-[2-(1-n-Butyl-4-piperidylidene)ethyl]-1-n-propylindazole-3-carboxamide] | 0.437 µM | –
CCCCN1CCN(CCNC(=O)c2nn(C(CC)CC)c3ccccc23)CC1 [Compound 14, N-[2-(4-n-Butyl-1-piperazinyl)ethyl]-1-(3-pentyl)indazole-3-carboxamide] | 6.03 µM | –
CN1CCN(CCNC(=O)c2n[nH]c3ccccc23)CC1 [N-[2-(4-methyl-1-piperazinyl)ethyl]-1H-indazole-3-carboxamide] | – | hypotensive activity (in words) [3]: has hypotensive activity
CCCn1nc(C(=O)NCCN2CCN(Cc3ccc(F)cc3)CC2)c2ccccc21 [Compound 15, N-[2-(4-p-Fluorobenzyl-1-piperazinyl)ethyl]-1-n-propylindazole-3-carboxamide] | 6.76 µM | –
CCCn1nc(C(=O)NCCN2CCN(Cc3ccc(OC)cc3)CC2)c2ccccc21 [Compound 28, N-[2-(4-p-Methoxybenzyl-1-piperazinyl)ethyl]-1-n-propylindazole-3-carboxamide] | 1.58 µM | –
CCCCN1CCC(CNC(=O)c2nn(CCC)c3ccccc23)CC1 [Compound 18, N-(1-n-Butyl-4-piperidyl)methyl-1-n-propylindazole-3-carboxamide] | 7.94 µM | –
CCCCN1CCN(CCNC(=O)c2nn(C(C)C)c3ccccc23)CC1 [Compound 30, N-[2-(4-n-Butyl-1-piperazinyl)ethyl]-1-isopropylindazole-3-carboxamide] | 2.95 µM | –
